In ChEMBL document CHEMBL1201862, “PubChem BioAssay data set” (2004):
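Each compound was tested at five concentrations against cells in 96-well plates for 48 hours. Here, GI50 denotes the concentration required for 50% inhibition of growth.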 Activity calls are given as the source filed them. No stated cut-off is given here; in the data, active = GI50 up to about 1.1 µM and inactive = higher.

Columns and labels:
Assay in all cases: NCI anticancer screen, dose series, 48 h
[1] = tested on: HCT-15
[2] = tested on: OVCAR-5
[3] = tested on: MCF7
[4] = tested on: SF-268
[5] = tested on: 786-0
[6] = tested on: HT-29
[7] = tested on: SF-539
[8] = tested on: TK-10
[9] = tested on: MOLT-4
[10] = tested on: SK-MEL-28
[11] = tested on: IGROV-1
[12] = tested on: MDA-N
[13] = tested on: SK-OV-3
[14] = tested on: NCI-H460
[15] = tested on: K562
[16] = tested on: UO-31
[17] = tested on: RPMI-8226
[18] = tested on: HOP-62
[19] = tested on: LOX IMVI
[20] = tested on: OVCAR-4

SMILES	GI50 [1] [µM]	GI50 [2]	GI50 [3]	GI50 [4]	GI50 [5]	GI50 [6]	GI50 [7]	GI50 [8]	GI50 [9]	GI50 [10]	GI50 [11]	GI50 [12]	GI50 [13]	GI50 [14]	GI50 [15]	GI50 [16]	GI50 [17]	GI50 [18]	GI50 [19]	GI50 [20]
O=NN(CCCl)C(=O)NCCCl [CARMUSTINE]	64.6	105 µM (inactive)	68.9 µM (inactive)	38.6 µM (inactive)	42.3 µM (inactive)	79.3 µM (inactive)	44.8 µM (inactive)	93.1 µM (inactive)	33.5 µM (inactive)	81.5 µM (inactive)	70.6 µM (inactive)	71.3 µM (inactive)	115 µM (inactive)	52.5 µM (inactive)	45.8 µM (inactive)	98.2 µM (inactive)	51.3 µM (inactive)	97.3 µM (inactive)	38 µM (inactive)	87.9 µM (inactive)
[N-]=[N+]=C1C(=O)c2ccccc2-c2ccccc21	29	34.1 µM (inactive)	25.9 µM (inactive)	33.3 µM (inactive)	26.1 µM (inactive)	34.8 µM (inactive)	24.6 µM (inactive)	54 µM (inactive)	24.9 µM (inactive)	60.8 µM (inactive)	33 µM (inactive)	43.7 µM (inactive)	39.5 µM (inactive)	32.1 µM (inactive)	36.6 µM (inactive)	27.2 µM (inactive)	26.9 µM (inactive)	41.2 µM (inactive)	25.9 µM (inactive)	35.8 µM (inactive)
CC(=O)Nc1ccc(S(=O)(=O)/N=C2\C=CC(=O)c3ccccc32)cc1	7.62	8.55 µM (inactive)	5.01 µM (inactive)	8.02 µM (inactive)	9.25 µM (inactive)	13.6 µM (inactive)	7.66 µM (inactive)	19.9 µM (inactive)	0.428 µM (active)	10.5 µM (inactive)	2.58 µM (inactive)	1.95 µM (inactive)	16.5 µM (inactive)	12.1 µM (inactive)	2.57 µM (inactive)	7.48 µM (inactive)	4.56 µM (inactive)	8.83 µM (inactive)	2.04 µM (inactive)	1.87 µM (inactive)
c1ccc(COc2ccc(C[P+](c3ccccc3)(c3ccccc3)c3ccccc3)cc2)cc1	2.82	0.269 µM (active)	0.1 µM (active)	0.261 µM (active)	0.371 µM (active)	0.19 µM (active)	0.284 µM (active)	0.251 µM (active)	0.285 µM (active)	0.337 µM (active)	0.294 µM (active)	0.221 µM (active)	0.287 µM (active)	0.225 µM (active)	0.0556 µM (active)	2.94 µM (inactive)	0.0257 µM (active)	0.427 µM (active)	0.251 µM (active)	0.245 µM (active)
[N-]=[N+]=CC(=O)COC(=O)c1ccccc1	> 100	> 100 µM (inactive)	88.5 µM (inactive)	> 100 µM (inactive)	> 100 µM (inactive)	> 100 µM (inactive)	> 100 µM (inactive)	> 100 µM (inactive)	> 100 µM (inactive)	> 100 µM (inactive)	> 100 µM (inactive)	> 100 µM (inactive)	> 100 µM (inactive)	> 100 µM (inactive)	> 100 µM (inactive)	> 100 µM (inactive)	74.1 µM (inactive)	> 100 µM (inactive)	> 100 µM (inactive)	> 100 µM (inactive)
CC(=O)OC1CCC2(C)C(=CCC3C2CCC2(C)C3CC3OC4(CCC(C)CN4)C(C)C32)C1 (stereo not given)	> 100	> 100 µM (inactive)	> 100 µM (inactive)	> 100 µM (inactive)	74.3 µM (inactive)	> 100 µM (inactive)	> 100 µM (inactive)	> 100 µM (inactive)	> 100 µM (inactive)	> 100 µM (inactive)	> 100 µM (inactive)	> 100 µM (inactive)	> 100 µM (inactive)	> 100 µM (inactive)	> 100 µM (inactive)	> 100 µM (inactive)	> 100 µM (inactive)	> 100 µM (inactive)	> 100 µM (inactive)	> 100 µM (inactive)
COc1ccc2cc(C(=O)CCC(=O)O)ccc2c1	> 100	> 100 µM (inactive)	> 100 µM (inactive)	> 100 µM (inactive)	22.4 µM (inactive)	> 100 µM (inactive)	> 100 µM (inactive)	> 100 µM (inactive)	> 100 µM (inactive)	> 100 µM (inactive)	> 100 µM (inactive)	> 100 µM (inactive)	> 100 µM (inactive)	> 100 µM (inactive)	> 100 µM (inactive)	> 100 µM (inactive)	> 100 µM (inactive)	> 100 µM (inactive)	> 100 µM (inactive)	> 100 µM (inactive)
